Experimental data taken from ChEMBL document CHEMBL1201862, “PubChem BioAssay data set” (2004).
Activity calls are given as the source filed them.

What was measured:
Coagulation factor XII = biological target: T1, Coagulation factor XII (Homo sapiens, UniProt P00748); format: functional;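 also: activated factor XIIa alpha cleaving a fluorogenic AMC peptide substrate; inhibitor potency from loss of enzyme activity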
T1 sequence (P00748 whole entry): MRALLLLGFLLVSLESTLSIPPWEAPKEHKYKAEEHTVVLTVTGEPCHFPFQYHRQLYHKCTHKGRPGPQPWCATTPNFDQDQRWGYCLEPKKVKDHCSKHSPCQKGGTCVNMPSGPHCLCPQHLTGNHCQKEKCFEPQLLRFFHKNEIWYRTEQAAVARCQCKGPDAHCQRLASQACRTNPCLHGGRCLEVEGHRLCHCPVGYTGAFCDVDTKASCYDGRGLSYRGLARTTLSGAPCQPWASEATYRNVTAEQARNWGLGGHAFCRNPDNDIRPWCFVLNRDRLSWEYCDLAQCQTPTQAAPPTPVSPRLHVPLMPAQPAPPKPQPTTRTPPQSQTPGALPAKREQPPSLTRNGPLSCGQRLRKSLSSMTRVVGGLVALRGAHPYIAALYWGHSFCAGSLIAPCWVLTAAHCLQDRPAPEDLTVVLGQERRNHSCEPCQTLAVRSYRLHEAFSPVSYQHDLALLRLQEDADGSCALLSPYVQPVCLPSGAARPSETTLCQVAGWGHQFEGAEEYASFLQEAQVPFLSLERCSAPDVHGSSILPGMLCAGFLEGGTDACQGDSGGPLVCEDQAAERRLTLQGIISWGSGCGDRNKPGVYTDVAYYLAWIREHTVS

[1] = HEK-293T viability loss after treatment – luminescence, T-cell screen hits, cytotoxicity control for TCR NF-kB inhibitor project, dose response (AID 489026); format: functional, cell-based;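 also: cells exposed to compound about 14 hours before the viability readout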
[2] = Luminescence Cell-Based Dose Response HTS to Identify Inhibitors of 5'UTR Stem-Loop Driven Prion Protein mRNA Translation in H4 Neuroglioblastoma Cells. [Related pubchem assays: 1827 (Project Summary), 1813 (Primary HTS)]; format: functional
[3] = biological target: T2, Microphthalmia-associated transcription factor (Homo sapiens, UniProt O75030); experiment: reducers of TRPM1 reporter luminescence, concentration series – cell-based, SK-MEL-5, cherry-picked, set 3, MITF inhibitor project, dose response (AID 493073); format: functional;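 also: SK-MEL-5 melanoma cells with luciferase driven by the MITF target TRPM1 promoter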
T2 sequence (O75030 whole entry): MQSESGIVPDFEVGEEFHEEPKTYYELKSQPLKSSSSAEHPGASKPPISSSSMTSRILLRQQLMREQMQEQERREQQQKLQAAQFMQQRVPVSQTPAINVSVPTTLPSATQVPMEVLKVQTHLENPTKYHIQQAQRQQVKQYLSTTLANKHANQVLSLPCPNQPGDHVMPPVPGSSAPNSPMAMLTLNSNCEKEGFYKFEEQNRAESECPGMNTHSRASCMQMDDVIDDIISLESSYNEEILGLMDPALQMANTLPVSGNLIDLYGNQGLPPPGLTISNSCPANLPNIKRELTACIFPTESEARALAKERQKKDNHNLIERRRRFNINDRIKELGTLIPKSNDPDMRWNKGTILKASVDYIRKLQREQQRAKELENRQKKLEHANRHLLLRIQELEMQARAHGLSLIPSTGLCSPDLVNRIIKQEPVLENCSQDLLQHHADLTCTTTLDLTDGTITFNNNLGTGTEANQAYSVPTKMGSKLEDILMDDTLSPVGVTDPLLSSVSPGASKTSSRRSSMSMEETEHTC

[4] = luciferase reporter signal suppression in cells – H4 neuroglioma cells, luminescence, dose response (AID 1990); format: functional, cell-based
[5] = alpha-synuclein stem-loop luciferase translation blockers – H4 neuroglioma cells, luminescence, confirmation (AID 1988); format: functional, cell-based
[6] = blockade of melanocortin 4 receptor signaling – cell-based, plate reader, cherry pick, counter-screen for LGR2 antagonist project, dose response (AID 743444); format: functional;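 also: transfected HEK 293 cells stimulated with alpha-MSH peptide; potency of inhibitors of the alpha-MSH evoked signal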
[7] = blockers of bursicon-stimulated LGR2 cAMP reporter – cell-based, HEK293, CRE-luciferase reporter, cherry pick, set 2, dose response (AID 743343); format: functional;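 also: transfected cells were stimulated with diluted bursicon conditioned medium after compound addition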
Large T antigen = Large T antigen (Simian virus 40, UniProt P03070); format: functional, Betapolyomavirus macacae;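 also: Confirmatory-stage PubChem screen for compounds that inhibit SV40 T antigen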
Sequence of Large T antigen (P03070 whole entry): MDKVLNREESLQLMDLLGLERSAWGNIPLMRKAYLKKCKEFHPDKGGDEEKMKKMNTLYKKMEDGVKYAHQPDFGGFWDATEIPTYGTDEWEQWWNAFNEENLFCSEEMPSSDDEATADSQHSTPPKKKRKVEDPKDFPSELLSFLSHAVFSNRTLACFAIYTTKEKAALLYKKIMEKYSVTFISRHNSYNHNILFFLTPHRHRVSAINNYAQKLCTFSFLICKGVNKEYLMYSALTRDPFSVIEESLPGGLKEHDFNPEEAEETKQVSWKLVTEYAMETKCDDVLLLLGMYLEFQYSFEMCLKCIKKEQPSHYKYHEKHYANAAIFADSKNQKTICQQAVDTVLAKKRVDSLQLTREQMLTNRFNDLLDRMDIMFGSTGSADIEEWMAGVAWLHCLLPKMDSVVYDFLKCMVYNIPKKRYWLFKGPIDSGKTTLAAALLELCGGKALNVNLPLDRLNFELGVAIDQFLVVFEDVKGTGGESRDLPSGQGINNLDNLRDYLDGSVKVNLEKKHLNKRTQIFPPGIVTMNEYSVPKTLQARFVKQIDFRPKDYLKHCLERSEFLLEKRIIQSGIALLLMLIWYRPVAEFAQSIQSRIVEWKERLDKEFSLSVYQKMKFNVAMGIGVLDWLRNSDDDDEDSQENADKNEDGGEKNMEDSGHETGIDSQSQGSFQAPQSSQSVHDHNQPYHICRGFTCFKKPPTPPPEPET

Leucine aminopeptidase = biological target: T3, Leucine aminopeptidase (Plasmodium falciparum 3D7, UniProt Q8IL11); experiment: P. falciparum M17LAP inhibitors, primary screen, biochemical, fluorogenic H-Leu-NHMec substrate, 1536-well (AID 1619); format: functional
T3 sequence (Q8IL11 whole entry): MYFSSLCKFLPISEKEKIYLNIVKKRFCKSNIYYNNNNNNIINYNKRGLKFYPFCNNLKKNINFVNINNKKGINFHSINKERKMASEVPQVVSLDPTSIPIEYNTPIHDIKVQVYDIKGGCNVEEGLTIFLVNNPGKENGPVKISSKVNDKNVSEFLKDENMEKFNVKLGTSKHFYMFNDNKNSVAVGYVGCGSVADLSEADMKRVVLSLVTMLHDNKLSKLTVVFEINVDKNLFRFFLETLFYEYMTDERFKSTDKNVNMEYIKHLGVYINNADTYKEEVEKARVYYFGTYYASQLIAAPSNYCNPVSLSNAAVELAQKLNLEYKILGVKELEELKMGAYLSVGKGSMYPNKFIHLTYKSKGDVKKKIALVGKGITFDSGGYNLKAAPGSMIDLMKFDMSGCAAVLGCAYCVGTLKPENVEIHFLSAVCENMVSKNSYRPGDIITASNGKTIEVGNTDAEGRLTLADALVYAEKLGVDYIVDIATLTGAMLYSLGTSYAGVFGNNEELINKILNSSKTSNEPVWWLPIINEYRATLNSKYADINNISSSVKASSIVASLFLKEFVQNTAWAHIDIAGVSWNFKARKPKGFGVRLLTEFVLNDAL

[8] = biological target: T4, Rac GTPase-activating protein 1 (Homo sapiens, UniProt Q9H0H5); experiment: blockers of MgcRacGAP-driven Rac1 GTP hydrolysis – biochemical, ADP Hunter fluorescence, primary and confirmatory, confirmation (AID 624330); format: functional
T4 sequence (Q9H0H5 whole entry): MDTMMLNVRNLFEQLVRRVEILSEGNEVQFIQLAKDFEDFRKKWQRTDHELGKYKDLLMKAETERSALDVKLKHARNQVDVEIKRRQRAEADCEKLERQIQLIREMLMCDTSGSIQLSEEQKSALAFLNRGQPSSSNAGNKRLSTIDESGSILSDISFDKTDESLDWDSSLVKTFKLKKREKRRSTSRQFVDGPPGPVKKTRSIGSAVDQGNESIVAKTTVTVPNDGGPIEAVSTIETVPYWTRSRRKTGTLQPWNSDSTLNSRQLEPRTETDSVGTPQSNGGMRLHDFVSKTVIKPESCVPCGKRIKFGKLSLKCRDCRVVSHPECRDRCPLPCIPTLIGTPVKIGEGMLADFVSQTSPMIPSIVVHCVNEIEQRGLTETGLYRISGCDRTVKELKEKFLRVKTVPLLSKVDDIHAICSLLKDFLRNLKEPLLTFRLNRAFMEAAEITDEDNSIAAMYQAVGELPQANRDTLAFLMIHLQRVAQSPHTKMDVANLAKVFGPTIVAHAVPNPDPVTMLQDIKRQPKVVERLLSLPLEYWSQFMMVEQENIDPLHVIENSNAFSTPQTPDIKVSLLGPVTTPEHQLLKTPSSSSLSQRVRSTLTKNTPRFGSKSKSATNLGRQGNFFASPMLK

Fatty acid synthase [9] = biological target: T5, Fatty acid synthase (Homo sapiens, UniProt P49327); experiment: inhibition of human FAS-TE enzyme activity – biochemical, endpoint fluorescence intensity, uHTS hits, dose response (AID 624327); format: functional;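 also: fluorescence from hydrolysis of an O-methyl fluorescein acyl ester substrate by the enzyme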
T5 sequence (P49327 whole entry): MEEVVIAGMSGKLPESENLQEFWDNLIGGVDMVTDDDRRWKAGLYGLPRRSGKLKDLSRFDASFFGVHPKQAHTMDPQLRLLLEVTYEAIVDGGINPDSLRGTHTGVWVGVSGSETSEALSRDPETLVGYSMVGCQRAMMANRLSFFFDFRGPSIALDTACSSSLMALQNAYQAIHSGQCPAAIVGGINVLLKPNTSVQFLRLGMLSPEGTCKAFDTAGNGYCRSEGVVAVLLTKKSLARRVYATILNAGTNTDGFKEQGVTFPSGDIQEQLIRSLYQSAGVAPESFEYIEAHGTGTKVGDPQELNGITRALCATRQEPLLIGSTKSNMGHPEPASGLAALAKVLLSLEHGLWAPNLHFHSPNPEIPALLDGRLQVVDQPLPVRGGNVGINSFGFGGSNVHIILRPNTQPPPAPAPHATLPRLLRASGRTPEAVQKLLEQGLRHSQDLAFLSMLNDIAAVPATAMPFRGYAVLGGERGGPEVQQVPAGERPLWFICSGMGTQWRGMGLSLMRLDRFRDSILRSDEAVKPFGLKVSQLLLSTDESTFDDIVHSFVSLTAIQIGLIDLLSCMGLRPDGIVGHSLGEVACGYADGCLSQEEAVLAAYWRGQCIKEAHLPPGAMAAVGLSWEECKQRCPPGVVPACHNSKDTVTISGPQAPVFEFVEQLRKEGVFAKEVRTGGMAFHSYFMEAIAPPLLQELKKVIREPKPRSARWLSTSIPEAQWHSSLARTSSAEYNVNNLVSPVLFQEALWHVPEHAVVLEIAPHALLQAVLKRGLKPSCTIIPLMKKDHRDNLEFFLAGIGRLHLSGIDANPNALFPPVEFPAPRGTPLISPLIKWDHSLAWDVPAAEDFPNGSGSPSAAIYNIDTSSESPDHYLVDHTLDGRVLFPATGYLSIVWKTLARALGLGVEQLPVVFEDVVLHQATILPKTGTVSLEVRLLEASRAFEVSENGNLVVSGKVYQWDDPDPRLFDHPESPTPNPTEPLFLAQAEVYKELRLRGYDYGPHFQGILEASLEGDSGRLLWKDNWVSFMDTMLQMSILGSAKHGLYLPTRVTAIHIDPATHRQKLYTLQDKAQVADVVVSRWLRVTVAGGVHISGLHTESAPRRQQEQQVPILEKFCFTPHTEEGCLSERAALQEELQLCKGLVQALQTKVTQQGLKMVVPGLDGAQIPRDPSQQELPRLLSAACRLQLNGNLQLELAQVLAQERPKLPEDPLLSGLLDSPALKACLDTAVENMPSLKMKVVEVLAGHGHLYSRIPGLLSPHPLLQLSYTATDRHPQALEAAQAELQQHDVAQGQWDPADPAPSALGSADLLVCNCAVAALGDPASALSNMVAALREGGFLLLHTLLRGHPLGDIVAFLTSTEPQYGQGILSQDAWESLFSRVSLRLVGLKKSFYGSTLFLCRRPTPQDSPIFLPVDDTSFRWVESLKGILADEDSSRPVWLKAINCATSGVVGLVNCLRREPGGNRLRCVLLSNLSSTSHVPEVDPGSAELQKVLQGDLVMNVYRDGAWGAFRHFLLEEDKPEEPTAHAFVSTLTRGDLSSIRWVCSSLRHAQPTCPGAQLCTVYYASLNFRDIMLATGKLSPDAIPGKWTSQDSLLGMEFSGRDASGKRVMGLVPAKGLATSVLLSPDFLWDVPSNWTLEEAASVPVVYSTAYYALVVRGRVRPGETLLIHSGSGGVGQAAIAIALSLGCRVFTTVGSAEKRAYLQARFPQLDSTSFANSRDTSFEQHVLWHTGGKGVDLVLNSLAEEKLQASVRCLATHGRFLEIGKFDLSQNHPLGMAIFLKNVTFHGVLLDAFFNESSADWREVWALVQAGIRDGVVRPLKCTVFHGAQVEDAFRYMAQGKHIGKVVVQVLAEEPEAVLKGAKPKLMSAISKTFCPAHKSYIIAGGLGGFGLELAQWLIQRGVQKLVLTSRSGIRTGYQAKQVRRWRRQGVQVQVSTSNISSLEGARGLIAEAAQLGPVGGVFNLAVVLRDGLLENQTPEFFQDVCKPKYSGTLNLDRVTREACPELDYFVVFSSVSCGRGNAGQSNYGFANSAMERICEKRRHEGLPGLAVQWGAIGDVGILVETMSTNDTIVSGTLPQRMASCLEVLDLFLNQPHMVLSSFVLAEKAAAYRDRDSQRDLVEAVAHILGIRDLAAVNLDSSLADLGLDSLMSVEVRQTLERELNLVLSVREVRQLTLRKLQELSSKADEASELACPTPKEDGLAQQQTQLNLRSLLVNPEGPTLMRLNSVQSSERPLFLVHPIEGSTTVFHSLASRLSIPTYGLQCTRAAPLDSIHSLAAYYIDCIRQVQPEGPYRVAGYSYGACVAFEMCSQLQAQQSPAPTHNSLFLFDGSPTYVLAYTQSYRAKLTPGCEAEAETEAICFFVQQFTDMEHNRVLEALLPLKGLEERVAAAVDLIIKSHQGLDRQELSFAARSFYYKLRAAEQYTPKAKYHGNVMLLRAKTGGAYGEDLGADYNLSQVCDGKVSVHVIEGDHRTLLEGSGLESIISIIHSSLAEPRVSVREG

Fatty acid synthase [10] = biological target: T5, Fatty acid synthase; experiment: inhibition of human FAS-TE enzyme activity – biochemical, kinetic fluorescence intensity, dose response (AID 624326); format: functional;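 also: rate of fluorescence rise from hydrolysis of a fluorogenic O-methyl fluorescein ester substrate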

O=C(NC1CCCc2ccccc21)C1CCN(S(=O)(=O)c2ccccc2F)CC1 (stereo not given)
IC50 (Coagulation factor XII): > 50 µM (inactive)

COc1ccc(C(=O)CSc2nc3ccc[nH]c-3n2)cc1OC
IC50 (Coagulation factor XII): > 50 µM (inactive)

CCc1ccc(/C=N/NC(=O)c2cc(C3CC3)nc3ccccc23)s1
IC50 [1]: > 80 µM (inactive)

Cc1cc(C(=O)CN2C(=O)c3ccccc3S2(=O)=O)c(C)n1-c1ccccc1
EC50 [2]: 9.5 µM (active) | AC50 [3]: 3.45 µM (active) | EC50 [4]: 7.71 µM (active) | EC50 [5]: 5.88 µM (active)

Cc1cc(NC(=O)COC(=O)C2CCN(S(=O)(=O)c3c(Cl)cccc3Cl)CC2)no1
IC50 (Coagulation factor XII): > 50 µM (inactive)

O=C(O)c1ccc(Nc2nc3c(s2)CCCC3)cc1
AC50 [6]: 4.75 µM (active) | AC50 [3]: 6.49 µM (active) | AC50 [7]: 4.2 µM (active)

CCOc1cc(NC(=O)CCl)c(OCC)cc1NC(=O)CCl
AC50 [3]: 5.51 µM (active)

COc1ccc(NC(=O)Cn2nnc(-c3ccccc3NS(=O)(=O)c3ccc(OC)cc3)n2)cc1
IC50 [1]: > 80 µM (inactive)

COc1cc(/C=C2\C(=O)NC(=O)N(CCc3ccc(F)cc3)C2=O)ccc1O
IC50 (Large T antigen): 20 µM (active) | IC50 (Leucine aminopeptidase): 15.8 µM (active)

CCOc1ccc(C(=O)Nc2cccc(C(=O)O)c2C)cc1Cl
AC50 [6]: 10.1 µM (active) | AC50 [3]: 8.56 µM (active) | AC50 [7]: 8.96 µM (active)

CN(C)c1ccc(NC(=O)CN2C(=O)CN=C(c3ccccc3)c3ccccc32)cc1
IC50 (Large T antigen): 11.9 µM (active) | IC50 [8]: 72 µM (active)

Cc1nonc1OC(C)CNCCNc1ccc([N+](=O)[O-])cc1 (stereo not given)
IC50 (Coagulation factor XII): > 50 µM (inactive)

O=C(C1CC(c2ccc(Cl)c(Cl)c2)=NO1)N1CCC2(CC1)OCCO2 (stereo not given)
IC50 (Fatty acid synthase [9]): 7.22 µM (active) | IC50 (Fatty acid synthase [10]): 5.55 µM (active) | IC50 (Coagulation factor XII): > 50 µM (inactive)

CCOc1ccc(-c2[nH]ncc2-c2ccc(OC)c(OC)c2)c(O)c1
IC50 [1]: 75.8 µM (inactive)
